The values that follow come from patent US20240376163A1, “PEPTIDE FOR INHIBITING CALCINEURIN AND USE THEREOF” (Seoul National University R&DB Foundation, priority 2023, published 2024).

The test system of assay [1] is NFAT transcriptional activity. Nature of the assay: NFAT luciferase reporter assay in Jurkat T cells expressing GST-tagged peptides. The format is cell-based. The note with it: PMA and ionomycin treatment. The method, then:
To measure the transcriptional activity of NFAT, Jurkat T cells were cotransfected with GST-tagged peptides and NFAT-luc by electroporation. After 24 hours, the cells were pretreated with 0.5 μM FK506 for 1 hour and then treated with 40 nM PMA and 1 μM ionomycin for 8 hours. For mammalian two-hybrid assay, HEK293T cells were cotransfected with GAL4 DBD-tagged CABIN1, VIVIT, chimeric, and substituted peptides, VP16 activation domain-tagged CNAβ2, and pG5-luc (a luciferase reporter plasmid containing the GAL4 reaction promoter) for 24 hours. Harvested cells were lysed with luciferase assay lysis buffer (17 mM KH2PO4, 183 mM K2HPO4, pH 7.8, 0.2% [v/v] Triton X-100) and sonicated briefly. The luciferase activity against each cell lysate was measured using Infinite M200 (Tecan, Männedorf, and Switzerland). In addition, the expression level of the transfected protein was confirmed by Western blotting.
(Reporter assays use an easily measured gene product as a stand-in for the process of interest.)

Another assay deals with calcineurin. Nature of the assay: Calcineurin cellular activity assay in Jurkat T cells. Conditions: Jurkat T cells expressing peptide or treated with FK506. In kind it is cell-based. As for the experimental part:
Calcineurin phosphatase activity was measured in vitro using the Calcineurin phosphatase assay kit (BML-AK804, Enzo Life Sciences, Farmingdale, NY, USA). GST or GST-tagged peptides were cultured with CNA for 30 min at room temperature and then performed according to the manufacturer's instructions. Jurkat T cells were transiently transfected with CAG-HA-mCherry-peptide by electroporation endogenous calcineurin phosphatase activity. After 24 hours, the Jurkat T cells were pretreated with FK506 for 1 hour before activation with PMA and ionomycin. Thereafter, the cells were washed with TBS buffer (20 mM Tris, pH 7.2, 150 mM NaCl), resuspended with lysis buffer in a calcineurin cell activity assay kit (BML-AK816, Enzo Life Sciences), and stored on ice for 30 min. Lysate supernatants were collected by gel filtration using Desaltting Column Resin included in the kit, free phosphate was removed, and performed according to the manufacturer's instructions.

PEITVTPPTP [CABIN1-L-1-2]: in assay [1], the “NFAT transcriptional activity (luciferase activity)” value is given as “inhibited luciferase activity compared to the negative control” and the “inhibitory effect on NFAT luciferase activity relative to VIVIT peptide” value is listed as “approximately 4 times”.
As for `C=CC[C@@H]1/C=C(\C)C[C@H](C)C[C@H](OC)[C@H]2O[C@@](O)(C(=O)C(=O)N3CCCC[C@H]3C(=O)O[C@H](/C(C)=C/[C@@H]3CC[C@@H](O)[C@H](OC)C3)[C@H](C)[C@@H](O)CC1=O)[C@H](C)C[C@@H]2OC` [FK506, Tacrolimus, reference compound], the “calcineurin phosphatase activity in cells” value in the assay with calcineurin is on record as “reduced the phosphatase activity of CNA”.
